Literature values as cited in patent US20070184116A1, “Pharmaceutical formulation containing unmilled flutamide” (priority 2004, published 2007).

solubility in acid medium (acid medium, for example 0.1% hydrochloric acid (pH corresponds to gastric juice)): virtually insoluble | solubility in water (water): virtually insoluble
Compound: CC(C)C(=O)Nc1ccc([N+](=O)[O-])c(C(F)(F)F)c1 [Flutamide, 2-methyl-N-[4-nitro-3-(trifluoromethyl)phenyl]propanamide]
